The numbers were not newly measured in PMC3877923 (Journal of the American Chemical Society, 2013), which cites them from elsewhere.

Marks after values point to notes of the source that are not given here.

For the molecule `Cc1cc(C#N)cc(C)c1Oc1nc(Nc2ccc(C#N)cc2)nc(N)c1Br` [etravirine], the “Aqueous solubility S” value is listed as << 1 ^b µg/mL.
